# Tested on: HepG2
# Test: Hepatoprotective activity in human HepG2 cells assessed as inhibition of APAP-induced cell damage at 10 uM by MTT assay relative to control
# Assay type: functional
row,SMILES,inhibition at 10 µM
1,COC(=O)c1cc(OC)c2c(c1-c1c(CO)cc(OC)c3c1OCO3)OCO2 [BICYCLOL],15.7%
2,COc1cc(C[C@H]2CO[C@H](c3ccc(O)c(OC)c3)[C@H]2CO)ccc1O [LARICIRESINOL],-4.3%
3,COc1cc(/C=C/C(=O)NCCc2ccc(O)cc2)ccc1O [N-TRANS-FERULOYL TYRAMINE],3.5%
4,C[C@@]12C[C@@H](c3ccoc3)OC(=O)C1=CC[C@]1(C)[C@H]2C[C@H]2COC(=O)[C@]21O,6.4%
5,COC(=O)[C@H]1O[C@H]2C[C@]1(C)C(CCCO[C@@H]1O[C@H](CO)[C@@H](O)[C@H](O)[C@H]1O)[C@]1(C)C[C@@H](c3ccoc3)OC(=O)[C@H]21 (stereo partly specified),-24.9%
6,C[C@@]12C[C@H](c3ccoc3)OC(=O)C1=CC[C@]1(C)[C@H]2C[C@H]2COC(=O)[C@]21O,6.6%
7,C[C@@H](O)/C=C/C1[C@]2(C)CO[C@@]1(C)C[C@@H](O)C2 (stereo partly specified),19.2%
8,O=C(/C=C/c1ccc(O)cc1)NCCc1ccc(O)cc1 [N-P-COUMAROYL TYRAMINE],39%
9,C[C@@]12C[C@@H](c3ccoc3)OC(=O)C1=CC[C@]1(C)[C@H]2C[C@H]2COC(=O)[C@]21OC1O[C@H](CO)[C@@H](O)[C@H](O)[C@H]1O (stereo partly specified),3.8%
10,C[C@@]12C[C@H](C3=CC(=O)O[C@@H]3O)OC(=O)C1=CC[C@]1(C)[C@H]2C[C@H]2COC(=O)[C@]21O,4.9%
11,COc1cc([C@@H]2OC[C@@H]3C(=O)OC[C@@H]32)cc(OC)c1O,17%

# — ChEMBL document CHEMBL4392875, “Rearranged Clerodane Diterpenoids from the Stems of Tinospora baenzigeri” (2019)
